Test results: patent US6127420A, “L-N^5 -(1-imino-3-alkenyl) ornithine and related compounds and use thereof” (priority 1998, dated 2000)
Read-outs that look alike come from different tables or passages of the source.

What was measured:
nNOS [1] = target: T1, nNOS (Rattus norvegicus, UniProt P29476); test: Time-dependent inactivation of nNOS (residual activity, oxyhemoglobin oxidation); format: biochemical; set-up: made in house; host or cells: stably transfected kidney 293 cells; settings: 25° C.; for inactivation of nNOS (in words, FIG. 2): under the conditions examined; for inactivation of nNOS relative to 2.0 μM L-NMA (FIG. 2): 0.5 μM L-VNIO vs 2.0 μM L-NMA
T1 sequence (P29476 whole entry): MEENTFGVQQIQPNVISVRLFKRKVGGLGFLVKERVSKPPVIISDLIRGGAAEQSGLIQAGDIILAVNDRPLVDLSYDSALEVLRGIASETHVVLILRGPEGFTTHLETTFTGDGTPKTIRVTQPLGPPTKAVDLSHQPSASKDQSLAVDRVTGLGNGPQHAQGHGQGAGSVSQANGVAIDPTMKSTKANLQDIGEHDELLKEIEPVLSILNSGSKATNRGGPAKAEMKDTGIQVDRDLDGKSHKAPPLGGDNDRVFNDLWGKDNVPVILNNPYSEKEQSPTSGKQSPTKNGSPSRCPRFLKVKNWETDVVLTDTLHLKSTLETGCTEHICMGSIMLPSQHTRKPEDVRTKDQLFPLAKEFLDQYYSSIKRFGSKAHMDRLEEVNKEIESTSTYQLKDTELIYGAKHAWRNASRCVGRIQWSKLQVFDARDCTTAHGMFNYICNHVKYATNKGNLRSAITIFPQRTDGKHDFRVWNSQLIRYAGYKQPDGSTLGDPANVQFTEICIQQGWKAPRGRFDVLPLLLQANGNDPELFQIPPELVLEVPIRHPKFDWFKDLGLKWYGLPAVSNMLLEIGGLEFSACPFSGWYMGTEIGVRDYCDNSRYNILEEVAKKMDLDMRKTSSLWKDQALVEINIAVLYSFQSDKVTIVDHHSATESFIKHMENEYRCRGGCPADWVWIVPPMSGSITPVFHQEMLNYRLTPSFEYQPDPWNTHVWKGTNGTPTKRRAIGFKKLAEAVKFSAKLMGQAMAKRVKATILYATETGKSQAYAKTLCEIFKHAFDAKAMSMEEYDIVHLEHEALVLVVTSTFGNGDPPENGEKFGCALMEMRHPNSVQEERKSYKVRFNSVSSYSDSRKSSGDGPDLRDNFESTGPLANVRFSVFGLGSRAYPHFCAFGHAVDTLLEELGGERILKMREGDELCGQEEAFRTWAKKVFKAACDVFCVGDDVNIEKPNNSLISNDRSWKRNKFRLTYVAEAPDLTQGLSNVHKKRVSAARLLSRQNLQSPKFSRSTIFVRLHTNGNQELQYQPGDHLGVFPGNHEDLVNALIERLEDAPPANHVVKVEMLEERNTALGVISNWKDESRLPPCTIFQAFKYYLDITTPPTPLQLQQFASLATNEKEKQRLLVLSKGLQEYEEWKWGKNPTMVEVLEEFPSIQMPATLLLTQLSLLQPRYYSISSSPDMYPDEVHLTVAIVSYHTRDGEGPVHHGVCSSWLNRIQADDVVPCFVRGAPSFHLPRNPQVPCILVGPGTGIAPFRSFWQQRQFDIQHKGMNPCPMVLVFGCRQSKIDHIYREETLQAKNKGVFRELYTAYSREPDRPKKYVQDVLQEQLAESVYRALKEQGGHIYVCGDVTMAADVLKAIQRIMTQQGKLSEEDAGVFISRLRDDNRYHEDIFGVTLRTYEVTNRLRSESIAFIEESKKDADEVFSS
Protocol: Nitric oxide-mediated oxidation of oxyhemoglobin was monitored at 401 nm (ε=0.038 μM^-1); the reference cuvette contained a similar mixture without enzyme. Rates were measured and used to calculate the residual activity. The results are shown in FIG. 1 where for ln A/Ao in the legend for the vertical axis, A is the residual activity of NOS at the time indicated and Ao is the activity of NOS at time zero (i.e., initial activity).
Determinations were carried out as described in Example XI. The results are shown in FIG. 2 where in (A/Ao) means the same as in Example XI.
Testing was carried out to compare inactivation by L-VNIO of the nNOS, eNOS and iNOS isoforms. Determinations were carried out as set forth in Example XI except that the reaction mixtures for iNOS omitted CaCl2 and calmodulin.

eNOS [2] = target: T2, eNOS (Bos taurus, UniProt P29473); settings: for eNOS Ki/Km: Ki divided by Km for L-arginine
T2 sequence (P29473 2-1205): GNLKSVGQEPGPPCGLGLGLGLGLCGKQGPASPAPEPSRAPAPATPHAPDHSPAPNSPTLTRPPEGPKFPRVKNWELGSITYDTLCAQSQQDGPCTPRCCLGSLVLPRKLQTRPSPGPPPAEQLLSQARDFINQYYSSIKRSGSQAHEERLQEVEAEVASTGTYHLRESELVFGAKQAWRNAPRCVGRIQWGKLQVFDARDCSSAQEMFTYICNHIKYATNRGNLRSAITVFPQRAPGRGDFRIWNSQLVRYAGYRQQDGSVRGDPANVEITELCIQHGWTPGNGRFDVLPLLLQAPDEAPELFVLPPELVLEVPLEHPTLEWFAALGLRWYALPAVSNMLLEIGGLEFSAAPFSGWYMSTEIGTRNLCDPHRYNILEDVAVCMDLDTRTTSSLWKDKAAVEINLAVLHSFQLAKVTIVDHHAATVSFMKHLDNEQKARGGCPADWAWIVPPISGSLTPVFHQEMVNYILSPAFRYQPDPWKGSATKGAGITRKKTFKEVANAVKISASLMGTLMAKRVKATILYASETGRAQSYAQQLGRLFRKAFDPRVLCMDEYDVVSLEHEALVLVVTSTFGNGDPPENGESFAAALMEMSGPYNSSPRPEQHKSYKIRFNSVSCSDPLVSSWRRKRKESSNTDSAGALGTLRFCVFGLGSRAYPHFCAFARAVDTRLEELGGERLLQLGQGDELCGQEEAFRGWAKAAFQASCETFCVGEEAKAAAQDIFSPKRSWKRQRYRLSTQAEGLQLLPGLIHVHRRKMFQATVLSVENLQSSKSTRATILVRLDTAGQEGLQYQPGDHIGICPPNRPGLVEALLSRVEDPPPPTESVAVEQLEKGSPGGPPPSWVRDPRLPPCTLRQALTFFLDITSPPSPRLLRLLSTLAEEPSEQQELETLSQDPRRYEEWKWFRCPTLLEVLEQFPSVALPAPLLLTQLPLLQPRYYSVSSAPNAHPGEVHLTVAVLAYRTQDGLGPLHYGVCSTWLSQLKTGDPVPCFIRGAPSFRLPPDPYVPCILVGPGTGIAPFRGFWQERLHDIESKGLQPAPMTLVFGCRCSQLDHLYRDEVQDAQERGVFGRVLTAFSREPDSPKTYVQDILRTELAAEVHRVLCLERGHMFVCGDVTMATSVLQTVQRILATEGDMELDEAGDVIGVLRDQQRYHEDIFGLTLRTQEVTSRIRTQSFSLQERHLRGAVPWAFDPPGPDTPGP
Protocol: (§1) For determination of Ki of a compound, activity of NOS is determined by monitoring the conversion of L-[^14 C]arginine to L-[^14 C]citrulline. […] Reaction mixtures for iNOS are similar, but CaCl2 and calmodulin are omitted. Reaction is initiated by the addition of the enzyme, and the solutions are maintained at 25° C. for 4 min. Reaction mixtures are quenched by the addition of 200 μl of stop buffer containing 100 mM Na^+ Hepes buffer, pH 5.5, and 5 mM ethylene glycol bis (β-aminoethylether)-N,N,N',N"-tetraacetic acid (EGTA). The resulting samples are heated in a boiling water bath for 1 minute and chilled and centrifuged. A portion (225 μl) of the supernatant is applied to small Dowex 50 columns (Na^+ form, 1 ml resin), and the product L-[^14 C]citrulline is eluted with 2 ml of water and quantified by liquid scintillation counting.

iNOS [3] = target: T3, iNOS (Mus musculus, UniProt P29477); settings: for iNOS Ki/Km: Ki divided by Km for L-arginine
T3 sequence (P29477 whole entry): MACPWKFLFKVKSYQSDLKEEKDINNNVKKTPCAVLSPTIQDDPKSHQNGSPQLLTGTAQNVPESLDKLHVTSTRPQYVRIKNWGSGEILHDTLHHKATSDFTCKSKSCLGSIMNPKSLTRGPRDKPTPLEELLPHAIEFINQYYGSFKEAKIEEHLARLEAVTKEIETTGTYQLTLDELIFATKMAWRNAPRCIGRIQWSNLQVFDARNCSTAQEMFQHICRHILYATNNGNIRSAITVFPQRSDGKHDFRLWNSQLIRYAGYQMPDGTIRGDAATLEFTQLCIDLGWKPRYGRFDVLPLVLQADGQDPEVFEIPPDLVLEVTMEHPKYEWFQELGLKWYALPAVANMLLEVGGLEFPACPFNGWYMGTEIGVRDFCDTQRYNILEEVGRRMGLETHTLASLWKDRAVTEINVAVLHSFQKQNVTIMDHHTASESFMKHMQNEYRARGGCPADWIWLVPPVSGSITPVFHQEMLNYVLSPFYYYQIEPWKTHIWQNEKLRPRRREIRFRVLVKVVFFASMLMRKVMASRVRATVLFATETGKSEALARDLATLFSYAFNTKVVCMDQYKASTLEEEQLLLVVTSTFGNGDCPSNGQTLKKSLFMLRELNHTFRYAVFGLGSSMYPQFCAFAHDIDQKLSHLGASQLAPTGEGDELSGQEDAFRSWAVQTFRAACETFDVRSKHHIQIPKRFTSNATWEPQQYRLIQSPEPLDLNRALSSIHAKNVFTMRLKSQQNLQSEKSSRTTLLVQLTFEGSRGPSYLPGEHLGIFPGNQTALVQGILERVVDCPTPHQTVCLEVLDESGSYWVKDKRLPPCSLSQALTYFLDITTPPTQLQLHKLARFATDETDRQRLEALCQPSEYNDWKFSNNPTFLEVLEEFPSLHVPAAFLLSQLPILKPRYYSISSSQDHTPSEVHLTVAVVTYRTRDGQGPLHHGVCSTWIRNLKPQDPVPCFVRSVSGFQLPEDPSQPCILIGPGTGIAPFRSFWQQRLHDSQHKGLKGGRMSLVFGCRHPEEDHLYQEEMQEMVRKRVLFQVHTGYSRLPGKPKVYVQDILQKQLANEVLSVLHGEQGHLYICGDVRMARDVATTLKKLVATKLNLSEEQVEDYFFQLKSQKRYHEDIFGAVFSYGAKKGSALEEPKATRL
Protocol: as §1

nNOS [4] = target: T1, nNOS; test: biochemical
Protocol: as §1

iNOS [5] = target: T3, iNOS; test: biochemical
Protocol: as §1

eNOS [6] = target: T2, eNOS; test: biochemical
Protocol: as §1

nNOS [7] = target: T1, nNOS; settings: for nNOS Ki/Km: Ki divided by Km for L-arginine; for selectivity for nNOS (in words): vs eNOS (and iNOS for L-VNIO), on a Ki/Km basis
Protocol: as §1

[8] = Migraine headache treatment of a patient with L-VNIO tablets; format: in vivo, human
Protocol: A person with a history of migraine headaches is provided with tablets containing 500 mg of L-VNIO. They are instructed to take one tablet at the first sign of migraine headache development and to take a second table 60 minutes later if the headache continues to develop. When a right-sided migraine headache begins, they take one tablet as instructed, and headache pain begins to decrease within 15 minutes and is absent within 45 minutes. […] The women therefore takes a second table as instructed and headache pain is absent within 30 minutes of taking the second tablet.

eNOS [9] = target: T2, eNOS; test: Time-dependent inactivation of eNOS (residual activity, oxyhemoglobin oxidation); format: biochemical, bovine; settings: 25° C.
iNOS [10] = target: T3, iNOS; test: Time-dependent inactivation of iNOS (residual activity, oxyhemoglobin oxidation; CaCl2 and calmodulin omitted); format: biochemical; settings: up to 100 μM L-VNIO, 25° C.
[11] = tested on: female Sprague-Dawley CFY rats; test: Stroke volume after carotid artery ligation in rats; format: in vivo, rat; settings: 25 mg/kg i.v. bolus 30 minutes after occlusion; histology 24 hours after artery occlusion
Protocol: Both carotid arteries are ligated in two groups of female Sprague-Dawley CFY rats. After 10 minutes, ligations are released and flow is again allowed.
In the case of one group, L-VNIO (25 mg/kg) is administered by bolus injection through a venous catheter 30 minutes after occlusion of the arteries. In the case of the other group, no therapeutic agent is administered.

[12] = first migraine, one 500 mg tablet

SMILES | inactivation of nNOS (in words, FIG. 2) (nNOS [1]) | eNOS Ki/Km (eNOS [2]) | iNOS Ki/Km (iNOS [3]) | Ki (iNOS [5]) [µM] | Ki (eNOS [6]) [µM] | nNOS Ki/Km (nNOS [7]) | selectivity for nNOS (in words) (nNOS [7]) | inactivation of nNOS relative to 2.0 μM L-NMA (FIG. 2) (nNOS [1]) | further results
CCCC(=N)NCCC[C@H](N)C(=O)O [ethyl-L-NIO, reference compound] | does not inactivate nNOS | 5.00 | 0.96 | 12 | 18 | 3.79 | do not show biologically significant selectivity for nNOS over eNOS | – | selectivity for iNOS over nNOS and eNOS (iNOS [3]; on a Ki/Km basis): 3 to 5 fold; Ki (nNOS [4]): 5.3 µM
CC(=N)NCCC[C@H](N)C(=O)O [L-NIO] | – | – | – | 3.9 | 3.9 | – | – | – | –
C=CCC(=N)NCCC[C@H](N)C(=O)O [L-VNIO, N^5-(1-imino-3-butenyl)-L-ornithine] | – | 3.33 | 4.80 | – | 12 | 0.07 | selective inhibitor of nNOS | comparable with that seen with 2.0 μM L-NMA | time until headache pain begins to decrease [8, 12]: ≤ 15 min; time until headache pain is absent [8, 12]: ≤ 45 min; pain relief by the first tablet, following day ([8]; following day, first 500 mg tablet): pain is not fully alleviated by the first tablet; time until headache pain is absent after the second tablet ([8]; following day, second 500 mg tablet 60 minutes after first): ≤ 30 min; inactivation of nNOS relative to 10 μM L-NIO (FIG. 2) (nNOS [1]; 0.5 μM L-VNIO vs 10 μM L-NIO): greater than that seen with 10 μM L-NIO; inactivation of nNOS (FIG. 3) (nNOS [1]; 0.5 μM L-VNIO): strong inactivator of nNOS; inactivation of nNOS (FIG. 1) (nNOS [1]; L-VNIO 0.1-0.8 μM, D-VNIO 100 μM): caused a first-order inactivation of nNOS; inhibition of eNOS (in words) (eNOS [2]; conclusion from Table I): poor inhibitor of eNOS; inhibition of iNOS (in words) (iNOS [3]; conclusion from Table I): poor inhibitor of eNOS and INOS; Ki (iNOS [3]; read-out: iNOS Ki, mouse iNOS, 25° C., pH 7.4, initial rate conditions, duplicates agreed within ±5%): 60 µM; inactivation of eNOS (FIG. 3) (eNOS [9]; 10 μM L-VNIO): relatively weak inactivator of eNOS; rate of inactivation of eNOS compared with nNOS (FIG. 3) (eNOS [9]; 20-fold higher concentration of L-VNIO: 10 μM eNOS vs 0.5 μM nNOS): does not match that seen with nNOS; inactivation of iNOS (FIG. 3) (iNOS [10]): does not inactivate iNOS; inhibition of nNOS (in words) (nNOS [7]; conclusion from Table I): potent inhibitor of nNOS; Ki (nNOS [7]; read-out: nNOS Ki, rat nNOS, 25° C., pH 7.4, initial rate conditions, duplicates agreed within ±5%): 0.1 µM; stroke volume compared to group receiving no treatment [11]: significant reduction in stroke volume
CCC(=N)NCCC[C@H](N)C(=O)O [methyl-L-NIO] | much weaker inactivator of nNOS | – | – | 9.5 | 10 | – | – | – | –
CNC(=N)NCCC[C@H](N)C(=O)O [L-NMA, N^ω -methyl-L-arginine, reference compound] | – | – | – | – | – | – | – | comparable | –
